Measured values taken from BindingDB's records for doi:10.1021/bi300261p (University of Colorado Boulder, 2012).

target: T1, Pentachlorophenol 4-monooxygenase (Sphingobium chlorophenolicum, UniProt P42535); assay: Spectroscopic Assay
T1 sequence (P42535 whole entry): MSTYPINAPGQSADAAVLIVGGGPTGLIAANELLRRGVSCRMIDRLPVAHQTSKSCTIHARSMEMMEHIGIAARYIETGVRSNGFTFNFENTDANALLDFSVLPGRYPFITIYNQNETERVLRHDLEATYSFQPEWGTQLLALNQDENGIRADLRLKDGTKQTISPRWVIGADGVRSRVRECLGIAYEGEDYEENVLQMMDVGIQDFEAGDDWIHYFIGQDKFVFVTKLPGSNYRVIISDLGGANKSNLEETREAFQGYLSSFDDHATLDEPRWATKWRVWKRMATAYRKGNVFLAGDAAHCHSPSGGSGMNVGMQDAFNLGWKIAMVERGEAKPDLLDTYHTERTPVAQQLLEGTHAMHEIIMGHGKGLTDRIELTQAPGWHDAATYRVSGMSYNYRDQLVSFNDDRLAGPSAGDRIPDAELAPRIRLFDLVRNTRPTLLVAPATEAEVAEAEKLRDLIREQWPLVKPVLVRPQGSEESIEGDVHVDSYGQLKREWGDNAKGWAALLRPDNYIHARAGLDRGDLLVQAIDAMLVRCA
Method: Formation of the hydroxylated product and depletion of NADPH were measured following ethyl acetate extraction of the reaction mixture.

Compared with Oc1c(Cl)c(Cl)cc(Cl)c1Cl [2,3,4,6-Tetrachlorophenol (TCP)], Oc1cc(Cl)c(Cl)c(Cl)c1 [SMR001307309] is higher in Kd: 11 µM for the first, over 500 µM for the second. The first binds more tightly here.

Going from Oc1c(Cl)cc(Cl)cc1Cl [2,4,6-Trichlorophenol (2,4,6-TriCP)] to Oc1c(Cl)cccc1Cl [2,6-Dichlorophenol], the Kd rises from 7 µM to 45.5 µM (6.5-fold).

Oc1ccccc1Cl [2-Chlorophenol (2-CP)] and Oc1cc(Cl)cc(Cl)c1 [3,5-Dichlorphenol (3,5-DCP)] cannot be ordered by Kd: over 1000 µM for the first, over 500 µM for the second.

Compared with Oc1c(Cl)c(Cl)c(Cl)c(Cl)c1Cl [Pentachlorophenol (PCP)], Oc1c(Cl)c(Cl)c(O)c(Cl)c1Cl [Tetrachlorohydroquinone (TCHQ)] is higher in Kd: under 0.05 µM for the first, 4.2 µM for the second.
